From patent publication US8563713B2, “Antibodies specific to carbamazepine” (priority 2011, dated 2013)

These compounds were tested on antibody specific to carbamazepine (assay: Interference from other drugs in the carbamazepine ELISA assay). Conditions: chemical tested at 10.0 μg/ml; procedures of Example 4 (competitive ELISA); tested in duplicate.
Type: binding, rabbit
Procedure: Production of the antibodies of the present disclosure was performed with conventional methods. In brief, the immunogen as prepared in Example 2 was diluted to 1.0 mg/ml in phosphate buffered saline (PBS). 1.0 ml of the immunogen solution was injected into rabbits with complete Freunds adjuvant. After 2-3 weeks, the animal was injected with 1.0 ml of the same immunogen solution with incomplete Freunds adjuvant. The same injection was repeated every other week until acceptable titer was obtained.
The Carbamazepine ELISA was developed with the antibody generated from Example 3. This assay is a competitive micro-immunoassay for determination of carbamazepine in a fluid sample. Carbamazepine in the fluid sample and carbamazepine derivative linked with the enzyme (HRP)-conjugate compete for the finite sites of the antibody coated on the solid surface of the microwell. If little or no carbamazepine is present in the fluid sample, more enzyme labeled carbamazepine derivative will bind to the antibody on the solid surface. Conversely, if a large or a significant amount of carbamazepine is present in the fluid sample, less enzyme labeled carbamazepine derivative will bind to the antibody, producing less color signal. The absorbance produced is inversely proportional to the amount of carbamazepine in the fluid sample.
Interference from other drugs was tested using 30 frequently used chemicals and medicines, at concentrations of 10.0 μg/ml.
The samples were tested in duplicate, following the procedures used in Example 4. All 30 samples produced a negative test result. Thus, the immunoassay of the present disclosure is specific to carbamazepine.

Row | Compound | Equivalent Carbamazepine Conc.
1 | CN[C@@H](C)[C@H](O)c1ccccc1 [(L)-Ephedrine] | <0.1 µg/mL
2 | CN1C(=O)CC[C@H]1c1cccnc1 [(−)-Cotinine] | <0.1 µg/mL
3 | CC(=O)Oc1ccccc1C(=O)O [Acetylsalicylic Acid] | <0.1 µg/mL
4 | CCC1(CCC(C)C)C(=O)NC(=O)NC1=O [Amobarbital] | <0.1 µg/mL
5 | CC1(C)S[C@@H]2[C@H](NC(=O)[C@H](N)c3ccccc3)C(=O)N2[C@H]1C(=O)O [Ampicillin] | <0.1 µg/mL
6 | Cn1c(=O)c2c(ncn2C)n(C)c1=O [Caffeine] | <0.1 µg/mL
7 | CN(C)CCCN1c2ccccc2Sc2ccc(Cl)cc21 [Chlorpromazine] | <0.1 µg/mL
8 | O=C(O)C1N=C(c2ccccc2)c2cc(Cl)ccc2NC1=O (centres unmarked) [Clorazepate] | <0.1 µg/mL
9 | CN1C(=O)CN=C(c2ccccc2)c2cc(Cl)ccc21 [Diazepam] | <0.1 µg/mL
10 | COC(=O)[C@@H]1[C@H]2CC[C@@H](C[C@@H]1O)N2C [Ecgonine Methyl Ester] | <0.1 µg/mL
11 | CC(C(=O)O)c1cccc(Oc2ccccc2)c1 (centres unmarked) [Fenoprofen] | <0.1 µg/mL
12 | Cc1ccc(C)c(OCCCC(C)(C)C(=O)O)c1 [Gemfibrozil] | <0.1 µg/mL
13 | O=C(O)c1cc(O)ccc1O [Gentisic Acid] | <0.1 µg/mL
14 | COc1ccc2c3c1O[C@H]1C(=O)CC[C@H]4[C@@H](C2)N(C)CC[C@]314 [Hydrocodone] | <0.1 µg/mL
15 | CC(C)Cc1ccc(C(C)C(=O)O)cc1 (centres unmarked) [Ibuprofen] | <0.1 µg/mL
16 | CN(C)CCCN1c2ccccc2CCc2ccccc21 [Imipramine] | <0.1 µg/mL
17 | CCN(CC)CC(=O)Nc1c(C)cccc1C [Lidocaine] | <0.1 µg/mL
18 | COc1ccc2cc([C@H](C)C(=O)O)ccc2c1 [Naproxen] | <0.1 µg/mL
19 | NC(=O)c1cccnc1 [Niacinamide] | <0.1 µg/mL
20 | CNC[C@H](O)c1cccc(O)c1 [Phenylephrine] | <0.1 µg/mL
21 | CC(N)C(O)c1ccccc1 (centres unmarked) [Phenylpropanolamine] | <0.1 µg/mL
22 | CCN(CC)CCNC(=O)c1ccc(N)cc1 [Procainamide] | <0.1 µg/mL
23 | CCN(CC)CCOC(=O)c1ccc(N)cc1 [Procaine] | <0.1 µg/mL
24 | C=C[C@H]1C[N@@]2CC[C@H]1C[C@@H]2[C@@H](O)c1ccnc2ccc(OC)cc12 [Quinidine] | <0.1 µg/mL
25 | Cc1cc(CC(=O)O)n(C)c1C(=O)c1ccc(Cl)cc1 [Zomepirac] | <0.1 µg/mL
26 | NCCc1ccccc1 [beta-Phenylethylamine] | <0.1 µg/mL
27 | CN[C@@H](C)Cc1ccccc1 [d-Methamphetamine] | <0.1 µg/mL
28 | Ecgonine | <0.1 µg/mL
29 | Penicillin | <0.1 µg/mL
